Results from patent US20250002527A1, “STEROID COMPOUND AND CONJUGATE THEREOF” (DUALITY BIOLOGICS (SUZHOU) CO., LTD., priority 2021, published 2025).

What was measured:
Type in all cases: cell-based
glucocorticoid receptor = molecular target: T1, glucocorticoid receptor (Homo sapiens, UniProt P04150); test: Measurement 1 of glucocorticoid receptor reporter gene GRE activity; settings: HEK293 transfected with pGL5 and pBIND-GR, 24 hours
T1 construct: expressed in transfected cells; host or cells: HEK293
T1 sequence (P04150 1-777): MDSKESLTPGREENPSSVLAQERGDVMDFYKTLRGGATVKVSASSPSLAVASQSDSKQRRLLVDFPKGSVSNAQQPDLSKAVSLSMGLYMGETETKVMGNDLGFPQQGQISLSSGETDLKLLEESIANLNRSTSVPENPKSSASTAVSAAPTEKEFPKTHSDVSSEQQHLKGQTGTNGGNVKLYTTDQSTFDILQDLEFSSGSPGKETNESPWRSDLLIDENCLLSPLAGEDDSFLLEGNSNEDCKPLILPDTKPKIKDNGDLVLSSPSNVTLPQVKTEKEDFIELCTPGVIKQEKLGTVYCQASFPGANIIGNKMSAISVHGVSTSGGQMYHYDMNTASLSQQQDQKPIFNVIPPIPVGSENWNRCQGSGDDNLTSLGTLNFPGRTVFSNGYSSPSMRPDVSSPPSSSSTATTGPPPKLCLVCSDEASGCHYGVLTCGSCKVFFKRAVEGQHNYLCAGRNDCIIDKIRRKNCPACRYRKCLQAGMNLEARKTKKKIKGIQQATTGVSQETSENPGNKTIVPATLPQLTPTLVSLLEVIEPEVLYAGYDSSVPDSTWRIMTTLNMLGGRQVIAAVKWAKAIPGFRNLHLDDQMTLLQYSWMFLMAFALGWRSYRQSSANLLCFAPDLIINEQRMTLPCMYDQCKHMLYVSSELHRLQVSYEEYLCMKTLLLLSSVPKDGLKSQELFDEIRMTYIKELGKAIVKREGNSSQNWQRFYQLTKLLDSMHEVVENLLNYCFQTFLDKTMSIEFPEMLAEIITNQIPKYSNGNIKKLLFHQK
Description: (§1) HEK293 cells were cultured in DMEM+10% FBS medium in a carbon dioxide incubator humidified at 37° C. at 5% carbon dioxide.
(§2) The prepared transfection mixtures were added to 10 mL of the cell density-adjusted resuspension, mixed well by turning the mixtures upside down, and seeded into a 96-well plate at a volume of 100 μL/well.
(§3) The test plate was detected using the Dual-Glo Luciferase Assay System kit from Promega, and the fluorescence signal of Firefly Luciferase and the fluorescence signal of Renilla Luciferase were read using Enspire, respectively.
The final measurement value was a normalized value “F/R” obtained by dividing the Firefly Luciferase fluorescent signal by the Renilla Luciferase fluorescent signal.
The data were copied and pasted into Excel, and the activation rate was obtained through an equation.
The data were imported into MS Excel and subjected to curve fitting by using XLFit excel add-in version 5.4.0.8 to obtain an EC50 value.
(§4) Y is the agonism and X is the concentration of the compound.

ERα = molecular target: T2, ERα (Homo sapiens, UniProt P03372); test: ERα luciferase reporter gene experiment; settings: HEK293 transfected with pBIND-ERα
T2 sequence (P03372 311-547 limits assumed): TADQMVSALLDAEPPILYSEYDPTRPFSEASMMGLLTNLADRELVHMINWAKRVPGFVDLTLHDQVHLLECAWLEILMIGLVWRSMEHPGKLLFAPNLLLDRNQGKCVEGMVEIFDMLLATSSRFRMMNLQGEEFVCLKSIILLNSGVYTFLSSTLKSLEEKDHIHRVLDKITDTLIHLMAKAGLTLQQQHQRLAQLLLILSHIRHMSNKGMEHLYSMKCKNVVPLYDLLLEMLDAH
Description: as §1
• 1) HEK293 cells were trypsinized, and the HEK293 cell resuspension was adjusted to 200,000 cell/mL in medium (96 well plate: 100 μL/well). • 2) Transfection reagent mixtures were prepared according to the table below, mixed well and left at room temperature for 20 minutes.
as §2, with “• 3) The” for “The”, “μL/well. • 4) The 96-well plate was incubated in a humidified incubator at 37° C. and 5% carbon dioxide for 24 hours.” for “μL/well.”
as §3, §4

human PBMC cells = test: TNF-α secretion from PBMC under R848 stimulation (compounds); settings: R848 5 μM, 24 hours, mean ± standard deviation
Description: The compounds of the present application were tested for their inhibitory effect on the production of peripheral blood monocytes. The peripheral blood monocytes were treated in vitro with the ligand-drug conjugate at different concentrations, and IFNα and TNFα generated by the peripheral blood monocytes were quantitatively detected after a certain time. The compounds of the present invention were evaluated for in-vitro activity.
The cryopreserved human PBMC cells were resuspended in a complete medium and counted, and the cell suspension was adjusted to 2.5×10*6 cells/mL with the culture medium. After the suspension was centrifuged to collect the cells the next day, the cells were resuspended using fresh culture medium. Test compounds were diluted to 4-fold final concentration in cell culture medium, 50 μL of the compounds were added into a 96-well cell plate, and 100 μL of diluted cells ([…]) were added into each well of the 96-well plate containing the compounds, followed by addition of 50 μL R848 to a final concentration of 5 μM. The cell plate was incubated at 37° C. with 5% CO2 for 24 hours. The supernatant was collected, and the TNF-α and IFN-α concentration levels in the supernatant were detected using an ELISA kit.
TNF-α concentration assay was performed using Dakewe TNF-α ELISA kit (Cat #1117202), 100 μL of the serially-diluted cytokine standard was added into each well, 100 μL of the above supernatant diluted 10-fold was added into each well, and 100 μL of 1× dilution buffer R was added into each blank well. 50 μL of biotinylated antibody working solution was added into each well. After mixing well, the plate was covered with the plate-sealing membrane and incubated at room temperature for 3 hours. The plate was washed for 3 times: the liquid in each well was discarded, and 300 μL of 1× washing buffer working solution was added into each well; after 1 minute of residence, the liquid in the wells was discarded. The procedure was repeated for 3 times. 100 μL of Streptavidin-HRP working solution was added into each well. The plate was covered with the plate-sealing membrane and incubated at room temperature for 20 minutes. The plate was washed for 3 times, 100 μL of TMB liquid was added into each well, and the plate was incubated for 25 minutes at room temperature (18-25° C.) in the dark. The reaction was stopped by adding 100 μL stop solution rapidly to each well. The reading at a wavelength of 450 nm was detected by an M2e instrument within 10 minutes after termination.
The contents of TNF-α and IFN-α were calculated from the OD450 values.

Compound: C[C@]12C=CC(=O)C=C1CC[C@@H]1[C@@H]2[C@@H](O)C[C@@]2(C)[C@H]1C[C@H]1O[C@@H](c3ccc(Cc4ccc(CO)cc4)cc3)O[C@]12C(=O)CO [Compound 4]
- EC50 (glucocorticoid receptor): 0.04 nM
- EC50 (ERα): > 1000 nM
- TNF-α secretion (pg/mL) from PBMC under R848 stimulation (human PBMC cells; compound 4 nM): 443.6 pg/mL
- TNF-α secretion (pg/mL) from PBMC under R848 stimulation (human PBMC cells; compound 20 nM): 320 pg/mL
- TNF-α secretion (pg/mL) from PBMC under R848 stimulation (human PBMC cells; compound 100 nM): 356.1 pg/mL
